Assay results published in EP4610262A1, “MACROCYCLIC COMPOUND AS CDK9 INHIBITOR AND USE THEREOF” (Artivila Biopharma, priority 2022, dated 2024).

Columns and labels:
Format in all cases: biochemical
[1] = molecular target: CDK7 (Homo sapiens, UniProt P50613); assay: Kinase selectivity, inhibition rate at 10 nM (caliper mobility shift assay); conditions: compound at 10 nM
Method: (§1) Compounds were tested at a concentration of 10 nM with detection in duplicate wells, or tested at 10 concentrations starting from 10 µM with three-fold serial dilutions, with detection in duplicate wells.
(§2) The inhibitory effect of the compounds on the activity of CDK9 protein kinase was detected by the caliper mobility shift assay method. 250 nL of the compound at 100-fold final concentration was transferred to a target 384-well-plate with a dispenser Echo 550. A kinase solution at 2.5-fold final concentration was prepared using 1× kinase buffer. 10 µL of the kinase solution at 2.5-fold final concentration was added to the compound well and positive control well respectively. 10 µL of 1× kinase buffer was added to the negative control well. The 384-well plate was centrifuged at 1000 rpm for 30 seconds and incubated at room temperature for 10 minutes. A mixed solution of ATP and kinase substrate at 5/3-fold final concentration was prepared with 1× kinase buffer, and to the 384-well plate was added with 15 µL per well of the mixed solution of ATP and substrate at 5/3-fold final concentration to start the reaction. The plate was centrifuged at 1000 rpm for 30 seconds, shaken to mix evenly, and incubated at room temperature for a corresponding time. 30 µL of detection stopping solution was added to terminate the kinase reaction. The 384-well plate was centrifuged at 1000 rpm for 30 seconds and shaken to mix evenly. The conversion rate was read with Caliper EZ Reader. The percent conversion inhibition rate = (% positive control conversion rate mean - % sample conversion rate / (% positive control conversion rate mean - % negative control conversion rate mean). Among them: negative control wells represent the conversion rate readings of kinase buffer background wells; positive control wells represent the conversion rate readings of wells without inhibition by compound. With the log value of concentration as the x-axis and the percentage inhibition rate as the y-axis, a dose-response curve was fitted using the log (inhibitor) vs. response -Variable slope of the analysis software GraphPad Prism 5 to obtain the IC50 value of each compound on enzyme activity. Calculation formula: y=Bottom + (Top-Bottom)/(1+10^((LogIC50-x) × hillslope)), x: logarithm of inhibitor concentration; y: % inhibition rate.
(§3) According to the description of the above experiment on kinase activity inhibition, some compounds were tested for their selective inhibition rate against the kinases of CDK7, CDK9, JAK1, JAK2, JAK3, ITK, RET, TYK2, and LRRK2 at 10 nM. The results are shown in Table 3 below: (Inhibition rate range: A>50%; B: 25-49%; C: <25%): […]

[2] = molecular target: LRRK2 (Homo sapiens, UniProt Q5S007); assay: as above; conditions: compound at 10 nM
Method: as §1, §2, §3

[3] = molecular target: JAK3 (Homo sapiens, UniProt P52333); assay: as above; conditions: compound at 10 nM
Chain of JAK3 (P52333 whole entry): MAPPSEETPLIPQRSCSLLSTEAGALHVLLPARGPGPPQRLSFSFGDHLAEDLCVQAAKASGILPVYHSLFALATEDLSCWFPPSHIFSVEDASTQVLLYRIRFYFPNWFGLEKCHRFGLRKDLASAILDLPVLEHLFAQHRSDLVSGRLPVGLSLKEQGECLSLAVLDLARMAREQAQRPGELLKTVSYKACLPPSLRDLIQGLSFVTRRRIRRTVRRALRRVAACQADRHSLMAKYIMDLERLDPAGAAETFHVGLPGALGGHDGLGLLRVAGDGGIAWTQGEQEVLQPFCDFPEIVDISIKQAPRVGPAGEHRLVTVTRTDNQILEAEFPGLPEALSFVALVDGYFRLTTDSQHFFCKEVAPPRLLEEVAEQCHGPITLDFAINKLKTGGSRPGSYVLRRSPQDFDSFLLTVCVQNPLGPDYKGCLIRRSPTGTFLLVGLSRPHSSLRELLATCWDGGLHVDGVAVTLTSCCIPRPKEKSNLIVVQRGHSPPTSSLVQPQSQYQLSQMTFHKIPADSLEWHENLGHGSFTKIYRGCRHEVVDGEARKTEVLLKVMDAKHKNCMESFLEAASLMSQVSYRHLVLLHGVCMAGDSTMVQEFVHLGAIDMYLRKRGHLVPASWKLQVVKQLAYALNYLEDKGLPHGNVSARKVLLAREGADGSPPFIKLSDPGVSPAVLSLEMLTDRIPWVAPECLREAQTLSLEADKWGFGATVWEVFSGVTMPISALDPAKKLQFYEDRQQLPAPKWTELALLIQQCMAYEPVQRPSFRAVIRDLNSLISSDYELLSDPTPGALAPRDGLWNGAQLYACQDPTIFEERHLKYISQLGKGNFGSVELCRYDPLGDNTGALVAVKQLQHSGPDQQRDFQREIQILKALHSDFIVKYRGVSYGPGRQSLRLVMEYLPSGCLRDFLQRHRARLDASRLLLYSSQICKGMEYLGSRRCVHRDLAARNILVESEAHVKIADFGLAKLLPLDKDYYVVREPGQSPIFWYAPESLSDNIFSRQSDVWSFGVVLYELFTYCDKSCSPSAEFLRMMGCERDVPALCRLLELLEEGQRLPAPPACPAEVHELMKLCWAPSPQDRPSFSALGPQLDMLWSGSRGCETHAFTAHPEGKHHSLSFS
Method: as §1, §2, §3

[4] = molecular target: RET (Homo sapiens, UniProt P07949); assay: as above; conditions: compound at 10 nM
Chain of RET (P07949 29-1114): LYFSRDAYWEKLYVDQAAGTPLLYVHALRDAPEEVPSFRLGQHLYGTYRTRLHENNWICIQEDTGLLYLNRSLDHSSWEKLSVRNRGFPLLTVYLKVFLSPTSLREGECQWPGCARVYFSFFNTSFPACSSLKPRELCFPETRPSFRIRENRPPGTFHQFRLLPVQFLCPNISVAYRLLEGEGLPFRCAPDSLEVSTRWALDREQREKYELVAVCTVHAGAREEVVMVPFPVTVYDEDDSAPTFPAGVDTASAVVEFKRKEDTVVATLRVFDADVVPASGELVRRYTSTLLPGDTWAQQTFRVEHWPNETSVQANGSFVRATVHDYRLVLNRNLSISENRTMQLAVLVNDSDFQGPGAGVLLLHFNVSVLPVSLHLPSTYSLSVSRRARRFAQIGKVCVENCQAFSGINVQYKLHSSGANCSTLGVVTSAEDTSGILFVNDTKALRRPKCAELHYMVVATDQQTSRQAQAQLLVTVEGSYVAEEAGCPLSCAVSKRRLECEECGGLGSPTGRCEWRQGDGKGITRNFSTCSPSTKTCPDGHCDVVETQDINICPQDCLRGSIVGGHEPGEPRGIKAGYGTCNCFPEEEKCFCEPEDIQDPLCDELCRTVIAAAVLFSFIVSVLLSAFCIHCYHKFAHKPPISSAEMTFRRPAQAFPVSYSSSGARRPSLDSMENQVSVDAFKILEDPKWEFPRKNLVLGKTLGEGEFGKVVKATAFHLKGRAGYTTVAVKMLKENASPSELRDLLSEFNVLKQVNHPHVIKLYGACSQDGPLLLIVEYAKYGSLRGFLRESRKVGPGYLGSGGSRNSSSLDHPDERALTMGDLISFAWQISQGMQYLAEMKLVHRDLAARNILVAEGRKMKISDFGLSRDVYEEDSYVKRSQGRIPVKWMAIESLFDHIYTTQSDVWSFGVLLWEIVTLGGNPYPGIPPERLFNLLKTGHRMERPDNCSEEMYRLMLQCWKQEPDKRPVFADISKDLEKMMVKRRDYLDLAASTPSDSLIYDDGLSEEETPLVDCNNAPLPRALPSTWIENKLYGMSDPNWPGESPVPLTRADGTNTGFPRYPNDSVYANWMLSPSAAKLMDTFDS
Method: as §1, §2, §3

[5] = molecular target: TYK2 (Homo sapiens, UniProt P29597); assay: as above; conditions: compound at 10 nM
Method: as §1, §2, §3

[6] = molecular target: JAK1 (Homo sapiens, UniProt P23458); assay: as above; conditions: compound at 10 nM
Method: as §1, §2, §3

[7] = molecular target: JAK2 (Homo sapiens, UniProt O60674); assay: as above; conditions: compound at 10 nM
Method: as §1, §2, §3

[8] = molecular target: CDK2/CyCA2 (Homo sapiens, UniProt P24941); assay: CDK kinase selectivity (HTRF / ADP-Glo); conditions: compound at 0.1 µM; read-out: Inhibition rate CDK2/CyCA2
Method: (§4) The selectivity of the test compounds against CDK kinases was detected. The compounds were tested at a concentration of 0.1 µM, and the inhibition rate of CDK kinases by the compounds was detected in duplicate wells, mainly using HTRF and ADP-Glo detection methods.
(§5) The HTRF detection method was conducted as follows: 2-fold ATP/substrate solution and 2-fold kinase/metal ion solution were prepared respectively with a kinase reaction buffer, and 25 nL of diluted compound solution was transferred to a 384-well detection plate with Echo 655. After centrifugation, the plate was added with 2.5 µL of 2-fold kinase/metal ion solution and incubated at 25°C for 10 minutes. After 10 minutes, 2.5 µL of 2-fold substrate/ATP solution was added to the 384-well detection plate and incubated at 25°C for 60 minutes. 2 kinase detection reagent (XL665 and antibody) was prepared with detection buffer, and 5 µL of kinase detection reagent was added to the 384-well detection plate and incubated at 25°C for 60 minutes. The fluorescence signals at 620 nm (Cryptate) and 665 nm (XL665) were read by the microplate reader, and the ratio and the inhibition rate of kinase activity by the compound were calculated.
(§6) The ADP-Glo detection method was conducted as follows. 2-fold ATP/substrate solution and 2-fold kinase/metal ion solution were prepared respectively with a kinase reaction buffer. 20 nL of diluted compound solution was transferred to a 384-well detection plate by Echo 655. After centrifuged, the 384-well detection plate was added with 2 µL of 2 × kinase/metal ion solution, and incubated at 25°C for 10 minutes. After 10 minutes, the 384-well detection plate was added with 2 µL of 2 × substrate/ATP solution and incubated at 25°C for 60 minutes. 4 µL of ADP-Glo reagent was added to each well and incubated at room temperature for 40 minutes. 10 µL of ADP detection reagent was added to each well and incubated at room temperature for 40 minutes. The chemiluminescent signal was detected with a microplate reader and the inhibition rate of kinase activity was calculated.

[9] = molecular target: CDK2/CycE1 (Homo sapiens, UniProt P24941); assay: CDK kinase selectivity (HTRF / ADP-Glo); conditions: compound at 0.1 µM; read-out: Inhibition rate CDK2/CycE1
Method: as §4, §5, §6

[10] = molecular target: CDK1/CycB1 (Homo sapiens, UniProt P06493); assay: CDK kinase selectivity (HTRF / ADP-Glo); conditions: compound at 0.1 µM; read-out: Inhibition rate CDK1/CycB1
Method: as §4, §5, §6

[11] = molecular target: CDK5/p25NCK (Homo sapiens, UniProt Q00535); assay: CDK kinase selectivity (HTRF / ADP-Glo); conditions: compound at 0.1 µM; read-out: Inhibition rate CDK5/p25NCK
Chain of CDK5/p25NCK (Q00535 whole entry): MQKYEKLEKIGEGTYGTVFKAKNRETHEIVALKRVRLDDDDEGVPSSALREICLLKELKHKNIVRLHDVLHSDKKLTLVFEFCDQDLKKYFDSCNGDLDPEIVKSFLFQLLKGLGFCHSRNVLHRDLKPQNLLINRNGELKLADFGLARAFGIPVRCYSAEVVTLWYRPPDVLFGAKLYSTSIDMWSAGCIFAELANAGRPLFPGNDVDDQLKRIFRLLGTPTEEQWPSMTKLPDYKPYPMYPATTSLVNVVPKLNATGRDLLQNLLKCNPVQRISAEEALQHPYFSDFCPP
Chain of CDK5/p25NCK (Q15078 99-307 partner limits assumed): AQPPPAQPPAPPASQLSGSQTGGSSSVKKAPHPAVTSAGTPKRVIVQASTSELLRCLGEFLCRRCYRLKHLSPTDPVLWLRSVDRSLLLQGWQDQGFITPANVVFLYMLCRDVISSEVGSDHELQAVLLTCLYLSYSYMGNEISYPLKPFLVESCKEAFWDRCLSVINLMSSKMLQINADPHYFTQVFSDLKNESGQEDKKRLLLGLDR
Method: as §4, §5, §6

[12] = molecular target: CDK6/CycD 1 (Homo sapiens, UniProt Q00534); assay: CDK kinase selectivity (HTRF / ADP-Glo); conditions: compound at 0.1 µM; read-out: Inhibition rate CDK6/CycD 1
Chain of CDK6/CycD 1 (Q00534 whole entry): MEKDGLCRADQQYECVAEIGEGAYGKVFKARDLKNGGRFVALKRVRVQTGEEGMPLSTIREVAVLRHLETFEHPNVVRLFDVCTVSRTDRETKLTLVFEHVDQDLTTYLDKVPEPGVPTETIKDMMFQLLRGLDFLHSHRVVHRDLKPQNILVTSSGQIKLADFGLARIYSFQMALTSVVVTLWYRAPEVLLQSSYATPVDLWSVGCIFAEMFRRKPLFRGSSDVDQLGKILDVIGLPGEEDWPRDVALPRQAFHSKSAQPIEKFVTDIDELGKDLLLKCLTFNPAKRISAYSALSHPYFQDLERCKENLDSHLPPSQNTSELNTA
Chain of CDK6/CycD 1 (P24385 whole entry partner): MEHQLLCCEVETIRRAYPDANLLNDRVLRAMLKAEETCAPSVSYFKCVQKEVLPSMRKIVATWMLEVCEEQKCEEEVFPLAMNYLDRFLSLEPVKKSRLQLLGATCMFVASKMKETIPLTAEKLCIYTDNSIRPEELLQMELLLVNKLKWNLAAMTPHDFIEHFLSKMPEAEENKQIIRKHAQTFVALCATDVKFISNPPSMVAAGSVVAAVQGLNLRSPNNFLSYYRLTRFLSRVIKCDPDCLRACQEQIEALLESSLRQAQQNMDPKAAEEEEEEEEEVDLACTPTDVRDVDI
Method: as §4, §5, §6

[13] = molecular target: CDK1/CycE1 (Homo sapiens, UniProt P06493); assay: CDK kinase selectivity (HTRF / ADP-Glo); conditions: compound at 0.1 µM; read-out: Inhibition rate CDK1/CycE1
Chain of CDK1/CycE1 (P24864 whole entry): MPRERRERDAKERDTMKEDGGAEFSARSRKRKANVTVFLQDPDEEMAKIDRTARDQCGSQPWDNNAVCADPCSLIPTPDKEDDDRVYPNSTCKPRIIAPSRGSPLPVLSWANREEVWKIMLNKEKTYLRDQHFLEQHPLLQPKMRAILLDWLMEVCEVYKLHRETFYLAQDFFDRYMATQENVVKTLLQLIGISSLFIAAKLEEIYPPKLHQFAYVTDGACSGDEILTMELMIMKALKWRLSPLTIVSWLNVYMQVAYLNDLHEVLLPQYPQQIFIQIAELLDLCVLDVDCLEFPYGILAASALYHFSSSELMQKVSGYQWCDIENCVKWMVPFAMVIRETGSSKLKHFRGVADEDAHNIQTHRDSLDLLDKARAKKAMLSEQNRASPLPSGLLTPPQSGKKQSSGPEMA
Chain of CDK1/CycE1 (P06493 whole entry): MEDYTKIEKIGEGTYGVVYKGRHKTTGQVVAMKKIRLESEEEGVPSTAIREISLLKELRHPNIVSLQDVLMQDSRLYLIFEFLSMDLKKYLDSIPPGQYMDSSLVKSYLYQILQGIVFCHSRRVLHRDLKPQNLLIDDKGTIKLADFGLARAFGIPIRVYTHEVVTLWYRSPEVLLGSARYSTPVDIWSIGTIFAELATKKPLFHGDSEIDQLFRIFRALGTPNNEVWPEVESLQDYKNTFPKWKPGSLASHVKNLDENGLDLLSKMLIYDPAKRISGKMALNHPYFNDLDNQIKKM
Method: as §4, §5, §6

[14] = molecular target: CDK4/cycD1 (Homo sapiens, UniProt P11802); assay: CDK kinase selectivity (HTRF / ADP-Glo); conditions: compound at 0.1 µM; read-out: Inhibition rate CDK4/cycD1
Chain of CDK4/cycD1 (P11802 whole entry): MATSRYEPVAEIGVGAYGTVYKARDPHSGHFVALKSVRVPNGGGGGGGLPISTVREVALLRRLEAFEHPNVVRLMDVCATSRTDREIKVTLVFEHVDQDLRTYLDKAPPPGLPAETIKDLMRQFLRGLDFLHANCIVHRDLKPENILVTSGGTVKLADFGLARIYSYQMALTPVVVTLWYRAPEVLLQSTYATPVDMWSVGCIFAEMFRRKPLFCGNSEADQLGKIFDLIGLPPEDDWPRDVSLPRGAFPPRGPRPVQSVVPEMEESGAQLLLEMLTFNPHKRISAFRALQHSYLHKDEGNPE
Chain of CDK4/cycD1 (P24385 whole entry partner): as the sequence (P24385 whole entry partner) above
Method: as §4, §5, §6

[15] = molecular target: CDK3/CycE1 (Homo sapiens, UniProt Q00526); assay: CDK kinase selectivity (HTRF / ADP-Glo); conditions: compound at 0.1 µM; read-out: Inhibition rate CDK3/CycE1
Chain of CDK3/CycE1 (P24864 whole entry): as the sequence (P24864 whole entry) above
Chain of CDK3/CycE1 (Q00526 whole entry): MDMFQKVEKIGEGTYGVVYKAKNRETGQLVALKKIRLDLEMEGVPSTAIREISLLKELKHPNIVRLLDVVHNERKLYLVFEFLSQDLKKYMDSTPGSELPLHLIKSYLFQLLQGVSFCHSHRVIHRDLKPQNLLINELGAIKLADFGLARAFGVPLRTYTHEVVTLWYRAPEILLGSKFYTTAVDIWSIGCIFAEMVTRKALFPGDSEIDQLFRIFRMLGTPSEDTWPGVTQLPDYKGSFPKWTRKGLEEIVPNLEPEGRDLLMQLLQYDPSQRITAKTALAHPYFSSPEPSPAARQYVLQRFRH
Method: as §4, §5, §6

## Clc1cnc2nc1NCCCCCNCc1cccc(c1)N2 [Compound 8, 1^5-chloro-2,5,11-triaza-1(2,4)-pyrimidina-3(1,3)-benzenacyclodecaphane]
[1]
  inhibition at 0.01 µM: < 25%
[2]
  inhibition at 0.01 µM: < 25%
[3]
  inhibition at 0.01 µM: < 25%
[4]
  inhibition at 0.01 µM: < 25%
[5]
  inhibition at 0.01 µM: < 25%
[6]
  inhibition at 0.01 µM: < 25%
[7]
  inhibition at 0.01 µM: 25 to 49%
[8]
  inhibition at 0.1 µM: < 50%
[9]
  inhibition at 0.1 µM: 50 to 75%
[10]
  inhibition at 0.1 µM: < 50%
[11]
  inhibition at 0.1 µM: 50 to 75%
[12]
  inhibition at 0.1 µM: < 50%
[13]
  inhibition at 0.1 µM: < 50%
[14]
  inhibition at 0.1 µM: < 50%
[15]
  inhibition at 0.1 µM: 50 to 75%
